Assay [1] concerns K562. As to the kind of experiment: Ability to inhibit the growth of human myelogenous leukemia K562 cells at 100 uM; no growth. In kind it is functional, cell-based.
For assay [2], the system named is K562. As to the kind of experiment: Ability to inhibit the growth of human myelogenous leukemia K562 cells. It is filed as functional, cell-based.

The structures appear in SMILES notation.

Consider `NC(=O)c1c[nH]c([C@@H]2O[C@H](CO)[C@@H](O)[C@H]2O)n1`, for which, in assay [1], the Activity entry was “no growth”.
Molecule `NC(=O)c1csc([C@@H]2O[C@H](CO)[C@@H](O)[C@H]2O)c1` displayed an IC50 in assay [2] of 4.6 µM.

These data come from ChEMBL document CHEMBL1134052, “A new C-nucleoside analogue of tiazofurin: synthesis and biological evaluation of 2-beta-D-ribofuranosylimidazole-4-carboxamide (imidazofurin)” (Bioorg Med Chem Lett, 2001).
